Assay results published in patent US20240091227A1, “Use Of 2-Phenyl-6-(1H-Imidazol-1-YL) Quinazoline For Treating Neurodegenerative Diseases, Preferably Alzheimer's Disease” (ROTTAPHARM BIOTECH S.R.L., priority 2019, published 2024).
Several values for one entry are separate records, joined by “and”; a condition that tells them apart may be missing. Identical values can stand only once. Like-named read-outs stand apart in the source and are kept apart here.

Columns and labels:
rats = assay: Rotarod and open field tests (motor coordination and locomotor activity); type: in vivo, rat; settings: suprapharmacological concentrations
Excerpt: These findings indicate that CR4056 could be a safe drug for treating neurodegenerative diseases, and, in particular, Alzheimer disease.

[1] = Brain penetration: plasma and brain levels by LC/MS/MS after oral administration; type: in vivo, rat; settings: 30 mg/kg PO, fasted; for concentration at 1 h / Kp at 1 h: male, Sprague Dawley, rat, po, 30 mg/kg; for Kp at 1 h: brain/plasma
Procedure: CR 4056 was determined in rat plasma and in rat brain and plasma using a LC/MS/MS method. Male Sprague Dawley rats, Harlan, were treated orally with a CR 4056 suspension (Methocel 0.5%) at the dose of 30 mg/kg. Oral administration was performed by gastric gavage to 3 animals per group (5 ml/kg). The compound was detected in plasma and in brain 1 hour after the treatment.
Each rat brain was weighted and cut in half. Each cerebral hemisphere was weighted and homogenized with two different methodologies. One was liquidization by Ultra turrax tube drive (IKA), adding an aliquot of buffer solution (10 mM ammonium formate pH 3.5) three times the weight of the hemisphere. Then 30 μl of the extract solution were added to 0.25 ml of methanol in a 1.5 ml eppendorf tube, vortex-mixed and centrifugated for 5 min at 13500 rpm at 4° C. the supernatant was transferred to a 96-deep well plates 2 mL round (Axygen) and injected into the LC/MS/MS system. The second one was cryogenic grinding with Mikro Dismembrator (Sartorius). Each cerebral hemisphere was weighted, put in a 20 mL teflon vessel with a steel sphere (7.85 g/ml dia 10 mm) and frozen by immersion in liquid nitrogen for 5 minutes. The deep frozen brain was ground with Mikro Dismembrator at 2500 rpm for 30 sec, the freezing/grinding cycle was repeated twice. A portion of powder was accurately weighted (ca. 10 mg) in a 1.5 ml eppendorf tube, 0.25 ml of methanol were then added. After vortex-mixing and centrifugation for 5 min at 13500 rpm at 4° C., the supernatant was placed in a 96-deep well plates 2 mL round (Axygen) and injected into the LC/MS/MS system. Both methods used for homogenization gave similar results showing that the extraction efficiency was similar for both methods.
Individual plasma and brain levels and brain plasma ratio after oral administration (30 mg/kg) of CR 4056 suspension to male Sprague Dawley rats in fasted conditions (rats were scarified 60 minutes after the PO administration) are shown in the following table.

IL-1β = IL-1β gene expression in IL-1β-stimulated U373 MG astrocytoma cells (RT-PCR); type: cell-based, human; settings: IL-1β 2 ng/ml
Procedure: (§1) A model of astrocytes, the human glioblastoma astrocytoma cell line U373 MG (Uppsala), was used for these experiments. Adherent cells were grown in DMEM medium supplemented with 10% FBS at 37° C. with CO2. 72 hours after plating, cells were treated for 1 h with 2-phenyl-6-(1H-imidazol-1-yl)quinazoline (CR4056) (10 μM) prepared according to EP2066653 and then stimulated with the pro-inflammatory cytokine IL-1β (2 ng/mL) for further 6 and 24 h.
(§2) At the end of incubation period, total RNA was obtained and retro-transcribed using the High-Capacity cDNA Reverse Transcription Kit (Thermo Fisher Scientific). The levels of expression of COX-2, IL-1β, IL-6 and TNFα were evaluated by RT-PCR analysis, performed using the Applied Biosystems 7500 Fast Real-Time PCR System using specific TaqMan assays and, as an endogenous control, the 18S Pre-Developed TaqMan® Assay (Thermo Fisher Scientific). The data analysis, with normalisation on 18S amplified values, was according to Thermo Fisher Scientific specific instructions for gene expression relative quantification. All individual data were the result of at least three different measurements for each sample.
(§3) Percentage of gene expression inhibition observed in U373 cells stimulated with IL-1β 2 ng/ml and exposed to 10 μM CR4056 for the indicated time.

[2] = test system: Mice treated with scopolamine; assay: Novel object recognition in scopolamine-induced memory impairment; type: in vivo, mouse; settings: scopolamine 1 mg/kg ip, CR4056 6 and 20 mg/kg os
Procedure: FIG. 5 reports the results of Novel Object recognition test in the model of scopolamine-induced memory loss. Data presented as % of time spent on exploration of new and old object in testing phase. *p<0.05; **P<0.01; t student test (n=6).
The novel object recognition test was used to evaluate cognitive function based on the ability of mice to recognize various object proposed in the arena test. During the training phase a pair of identical objects were placed in the cage test. 24 hours after the first phase, during the testing phase one of the two object was replaced by a new different one. Time of exploration of each object was recorded in training and testing phase. The typical approach of mice was a similar exploration of the objects in training phase and a preference for the new object during the testing phase. The administration of substances that can worsen cognitive performance (i.e., scopolamine) caused the deletion of reminder of the old object and an equal exploration of 2 different objects. Scopolamine 1 mg/kg was administered ip 20 minutes before the training, whereas CR4056 6 and 20 mg/kg was administered os 40 minutes before the training.

COX-2 = COX-2 gene expression in IL-1β-stimulated U373 MG astrocytoma cells (RT-PCR); type: cell-based, human; settings: IL-1β 2 ng/ml
Procedure: as §1, §2, §3

IL-6 = IL-6 gene expression in IL-1β-stimulated U373 MG astrocytoma cells (RT-PCR); type: cell-based, human; settings: IL-1β 2 ng/ml
Procedure: as §1, §2, §3

[3] = individual male Sprague Dawley rats, 1 h

c1ccc(-c2ncc3cc(-n4ccnc4)ccc3n2)cc1 [CR4056, 2-phenyl-6-(1H-imidazol-1-yl)quinazoline]
Impairment of motor coordination and locomotor activity (rotarod and open field tests) (rats): nor impairment of motor coordination and locomotor activity | Brain/plasma ratio [1, 3]: 12.4 and 11.4 | Mean Brain Concentration [1, 3]: 35492 ng/g and 27745 ng/g | Plasmatic Concentration [1, 3]: 2860 ng/mL and 2430 ng/mL | concentration at 1 h ([1]; brain, individual male Sprague Dawley rats, read-out: Mean Brain Concentration): 33600 ng/g | concentration at 1 h ([1]; brain, male Sprague Dawley rats, read-out: Mean Brain Concentration, mean of 3 rats): 32300 ng/g | Kp at 1 h ([1]; individual male Sprague Dawley rats, read-out: Brain/plasma ratio): 11.7 | Kp at 1 h ([1]; male Sprague Dawley rats, read-out: Brain/plasma ratio, mean of 3 rats): 11.8 | concentration at 1 h ([1]; plasma, individual male Sprague Dawley rats, read-out: Plasmatic Concentration): 2860 ng/mL | concentration at 1 h ([1]; plasma, male Sprague Dawley rats, read-out: Plasmatic Concentration, mean of 3 rats): 2720 ng/mL | Percentage of gene expression inhibition, IL-1β (IL-1β; 10 μM CR4056, 6 h): 20% | Percentage of gene expression inhibition, IL-1β (IL-1β; 10 μM CR4056, 24 h): 29% | Time of exploration of the new object in testing phase, novel object recognition [2]: increased the time of exploration of the new object | Percentage of gene expression inhibition, COX-2 (COX-2; 10 μM CR4056, 6 h): 45% | Percentage of gene expression inhibition, COX-2 (COX-2; 10 μM CR4056, 24 h): 48% | Percentage of gene expression inhibition, IL-6 (IL-6; 10 μM CR4056, 6 h): not yet modulated | Percentage of gene expression inhibition, IL-6 (IL-6; 10 μM CR4056, 24 h): 39%
